Reference: patent publication US10703764B2, “Benzopiperazine compositions as BET bromodomain inhibitors” (FORMA Therapeutics, Inc., priority 2013, dated 2020)

Legend:
BRD4 BD1 = target: T1, BRD4 BD1 (Homo sapiens, UniProt O60885); assay: AlphaScreen binding assay, BRD4 Bromodomain 1
T1 construct: made in house
Summary of the method: (§1)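 An AlphaScreen competition format was used with His-BRD4 BD1 or BD2 and biotin-H4 K5/8/12/16-acetyl peptide, each at matched final levels of 50 nM (BD1) or 100 nM (BD2). Incubation in HEPES/NaCl buffer with 0.1% BSA and 0.01% Triton X-100 ran ≥1 h before IC50 determination.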

BRD4 BD2 = target: T2, BRD4 BD2 (Homo sapiens, UniProt O60885); assay: AlphaScreen binding assay, BRD4 Bromodomain 2
T2 construct: made in house
Summary of the method: as §1

MV4-11 cells = assay: Oncology cell growth assay (3-day proliferation, CellTiter-Glo); type: cell-based; conditions: Homo sapiens, MV4-11, 72 h, AML cell line MV4-11, 72 hours, compounds grouped by IC50 range, read-out: MV4-11 IC50 (inhibition of proliferation, gIC50)
Summary of the method: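 Compounds were serially diluted 3-fold in DMSO, giving final well concentrations from 10 down to 0.0045 μM. MV4-11 cells were then seeded at 3000 cells/well in RPMI 1640 with 10% FBS and incubated 72 hours. CellTiter-Glo signal was measured and gIC50 obtained by four-parameter logistic regression.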

Compound	IC50 (BRD4 BD1) [nM]	IC50 (BRD4 BD2) [nM]	IC50 (MV4-11 cells) [nM]
COC(=O)N1c2ccc(-c3cnn(CCS(C)(=O)=O)c3)cc2N(C(=O)OC(C)C)C[C@@H]1C [Example I-318]	100 to 1000	50 to 500	> 500
CCOC(=O)N1C[C@H](C)N(C(C)=O)c2ccc(-c3cccc(NS(C)(=O)=O)c3)cc21 [Example I-1045]	1000 to 10000	50 to 500	> 500
CC(=O)N1c2ccc(-c3cnn(C[C@@H]4CCNC4)c3)cc2N(C(=O)OC(C)C)C[C@@H]1C [Example I-687]	100 to 1000	< 50	100 to 500
CC(=O)N1c2ccc(-c3cnn(C4CS(=O)(=O)C4)c3)cc2N(C(=O)OC2CCC2)C[C@@H]1C [Example I-98, cyclobutyl (3S)-4-acetyl-7-[1-(1,1-dioxo-1λ^6-thietan-3-yl)-1H-pyrazol-4-yl]-3-methyl-1,2,3,4-tetrahydroquinoxaline-1-carboxylate]	100 to 1000	50 to 500	100 to 500
CC(=O)N1c2ccc(-c3ccc(C4(O)COC4)cc3)cc2N(C(=O)C2CC2)C[C@@H]1C [Example I-443]	100 to 1000	< 50	100 to 500
CC(=O)N1c2ccc(-c3cnn(C(C)(C)C)c3)cc2N(C(=O)OC(C)C)C[C@@H]1C [Example I-330]	100 to 1000	50 to 500	100 to 500
CC(C)OC(=O)N1C[C@H](C)N(C(=O)C2CC2)c2ccc(-c3ccc(C(=O)N4CCNCC4)cc3)cc21 [Example I-558]	100 to 1000	50 to 500	100 to 500
CC(=O)N1c2ccc(-c3cnn(C4CCCS(=O)(=O)C4)c3)cc2N(C(=O)C2CC2)C[C@@H]1C (stereo partly drawn) [Example I-1310]	100 to 1000	50 to 500	> 500
CC(=O)N1c2ccc(-c3ccc(S(=O)(=O)CC4CC4)cc3)cc2N(C(=O)OC(C)C)C[C@@H]1C [Example I-1077]	1000 to 10000	50 to 500	100 to 500
CC(=O)N1c2ccc(-c3cn(C)nn3)cc2N(C(=O)OC(C)C)C[C@@H]1C [Example I-465]	100 to 1000	50 to 500	100 to 500
CC(=O)N1c2ccc(-c3cnc(C)s3)cc2N(C(=O)c2ccco2)C[C@@H]1C [Example I-15, (S)-1-(4-(furan-2-carbonyl)-2-methyl-6-(2-methylthiazol-5-yl)-3,4-dihydroquinoxalin-1(2H)-yl)ethanone]	1000 to 10000	< 50	100 to 500
CC(=O)N1c2ccc(-c3cnn(CC(F)F)c3)cc2N(C(=O)OC(C)C)C[C@@H]1C [Example I-135, (S)-isopropyl 4-acetyl-7-(1-(2,2-difluoroethyl)-1H-pyrazol-4-yl)-3-methyl-3,4-dihydroquinoxaline-1(2H)-carboxylate]	100 to 1000	50 to 500	100 to 500
CC(=O)N1c2ccc(-c3cccc(S(=O)(=O)NCCO)c3)cc2N(C(=O)OC2CCCCC2)C[C@@H]1C [Example I-1255]	100 to 1000	50 to 500	100 to 500

Next, values leading:

IC50 (BRD4 BD1) [nM]	IC50 (BRD4 BD2) [nM]	IC50 (MV4-11 cells) [nM]	Compound
100 to 1000	50 to 500	100 to 500	CC(=O)N1c2ccc(-c3ccc(C(=O)N4CCN(C=O)CC4)cc3)cc2N(C(=O)OC(C)C)C[C@@H]1C [Example I-545]
100 to 1000	50 to 500	100 to 500	CC(=O)N1c2ccc(-c3cccc(NS(=O)(=O)N(C)C)c3)cc2N(C(=O)OC2CCCCC2)C[C@@H]1C [Example I-1273]
1000 to 10000	50 to 500	100 to 500	CCN(CC)S(=O)(=O)c1cc(-c2ccc3c(c2)N(C(=O)C2CCC2)C[C@H](C)N3C(C)=O)ccc1OC [Example I-1113]
100 to 1000	50 to 500	100 to 500	COC(=O)N1c2ccc(-c3ccc(C(=O)N4CC[C@@H](NC(C)=O)C4)cc3)cc2N(C(=O)OC(C)C)C[C@@H]1C [Example I-569]
100 to 1000	50 to 500	> 500	CC(=O)N1c2ccc(-c3ccc4c(c3)N(C)S(=O)(=O)N4)cc2N(C(=O)C2CC2)C[C@@H]1C [Example I-1175]
1000 to 10000	> 500	> 500	COc1cc2c(cc1-c1cnn(C3CC3)c1)N(C(=O)OC(C)C)C[C@H](C)N2C(C)=O [Example I-210, Isopropyl (S)-4-acetyl-7-(1-cyclopropyl-1H-pyrazol-4-yl)-6-methoxy-3-methyl-3,4-dihydroquinoxaline-1(2H)-carboxylate]
